Structures are written as SMILES.

Holding throughout (type): functional
The species named for assay [1] is Mus musculus. The assay can be described thus: In vitro inhibitory activity against TNF-alpha production in mouse macrophages stimulated with LPS.
Assay [2] relates to Mus musculus. The assay can be described thus: Protection against LPS-induced death of D-galactosamine-sensitized mice (10 in number) at specified dose of 100 mg/kg on day 7.
Assay [3] deals with Mus musculus. As to the kind of experiment: Protection against LPS-induced death of D-galactosamine-sensitized mice (10 in number) at specified dose of 50 mg/kg on day 7.
Assay [4] relates to Mus musculus. The assay can be described thus: Protection against LPS-induced death of D-galactosamine-sensitized mice (10 in number) at specified dose of 0 mg/kg on day 7.

As for `CC(=O)Oc1cc2c(cc1OC(C)=O)C1Cc3cc(OC(C)=O)c(OC(C)=O)cc3C(C2)N1C(C)=O`, the IC50 in the assay listed under Mus musculus [1] is > 100 µM.

In turn, `COc1cc2c(cc1OC)C1Cc3cc(OC)c(OC)cc3C(C2)N1C(C)=O` gave an IC50 in the assay listed under Mus musculus [1] of 38 µM.

Consider `CCCC(=O)N1C2Cc3cc4c(cc3C1Cc1cc3c(cc12)OCO3)OCO4`, for which the values for the Survival rate in the assay with Mus musculus [2], in the assay on Mus musculus [3] and in the assay on Mus musculus [4] were 5 number of mice, 4 number of mice and 0 number of mice, respectively. In addition, the IC50 in the assay listed under Mus musculus [1] stood at 11 µM.

As for `CC(=O)N1C2Cc3cc4c(cc3C1Cc1cc3c(cc12)OCO3)OCO4`, the Survival rate was 9 number of mice with Mus musculus [2], 7 number of mice with Mus musculus [3] and 0 number of mice with Mus musculus [4]. It took 13 µM to reach half-maximal inhibition in the assay listed under Mus musculus [1] (IC50).

With `CNC(=O)N1C2Cc3cc4c(cc3C1Cc1cc3c(cc12)OCO3)OCO4`, the Survival rate is 6 number of mice with Mus musculus [2], 6 number of mice in the assay with Mus musculus [3] and 0 number of mice with Mus musculus [4]. For the same molecule, in the assay filed under Mus musculus [1], inhibition was half-maximal at 15 µM (IC50).

For the molecule `O=C(CCO)N1C2Cc3cc4c(cc3C1Cc1cc3c(cc12)OCO3)OCO4`, the values for the Survival rate with Mus musculus [2], with Mus musculus [3] and with Mus musculus [4] were 6 number of mice, 5 number of mice and 0 number of mice, respectively. The molecule further yielded an IC50 in the assay filed under Mus musculus [1] of 27 µM.

With `O=CN1C2Cc3cc4c(cc3C1Cc1cc3c(cc12)OCO3)OCO4`, the figures for the Survival rate in the assay with Mus musculus [2], in the assay on Mus musculus [3] and in the assay with Mus musculus [4] were 7 number of mice, 7 number of mice and 0 number of mice, respectively. In the assay filed under Mus musculus [1], this molecule registered an IC50 of 22 µM.

`NCCN1C2Cc3cc4c(cc3C1Cc1cc3c(cc12)OCO3)OCO4`: the Survival rate was 8 number of mice in the assay on Mus musculus [2], 8 number of mice in the assay on Mus musculus [3] and 0 number of mice with Mus musculus [4]. This molecule also registered an IC50 in the assay listed under Mus musculus [1] of 14 µM.

Molecule `CCCN1C2Cc3cc4c(cc3C1Cc1cc3c(cc12)OCO3)OCO4` displayed an IC50 in the assay listed under Mus musculus [1] of 56 µM. This counts as double-digit micromolar.

As to `CCN1C2Cc3cc4c(cc3C1Cc1cc3c(cc12)OCO3)OCO4`, the Survival rate in the assay with Mus musculus [2] is given as 10 number of mice; in the assay on Mus musculus [3], 9 number of mice; in the assay on Mus musculus [4], 0 number of mice. This molecule also had an IC50 in the assay filed under Mus musculus [1] of 27 µM.

`COCC(=O)N1C2Cc3cc4c(cc3C1Cc1cc3c(cc12)OCO3)OCO4`: half-maximal inhibition in the assay filed under Mus musculus [1] (IC50) was put at 17 µM. In other words, the double-digit micromolar range.

Regarding `CC(=O)N1C2Cc3cc4c(cc3C1Cc1cc(O)c(O)cc12)OCO4` (stereo not drawn), inhibition in the assay listed under Mus musculus [1] was half-maximal at 46 µM (IC50). This IC50 is about 2.7-fold higher than that of the molecule before.

In turn, `O=C(c1ccccc1)N1C2Cc3cc4c(cc3C1Cc1cc3c(cc12)OCO3)OCO4` came in with an IC50 in the assay listed under Mus musculus [1] of 38 µM. The IC50 values of the last two molecules are within 1.5-fold of each other.

As to `CCOC(=O)N1C2Cc3cc4c(cc3C1Cc1cc3c(cc12)OCO3)OCO4`, the Survival rate in the assay on Mus musculus [2] is on record as 3 number of mice; in the assay with Mus musculus [3], 3 number of mice; in the assay on Mus musculus [4], 0 number of mice. It took 31 µM to reach half-maximal inhibition in the assay filed under Mus musculus [1] (IC50).

For the molecule `Oc1cc2c(cc1O)C1Cc3cc4c(cc3C(C2)N1)OCO4` (stereo not drawn), the midpoint of inhibition in the assay listed under Mus musculus [1], the IC50, lay at 44 µM.

In the case of `CN1C2Cc3cc4c(cc3C1Cc1cc3c(cc12)OCO3)OCO4`, half-maximal inhibition in the assay listed under Mus musculus [1] (IC50) required 19 µM.

Consider `c1c2c(cc3c1OCCO3)C1Cc3cc4c(cc3C(C2)N1)OCCO4`, for which the results for the Survival rate in the assay with Mus musculus [2], with Mus musculus [3] and with Mus musculus [4] were 4 number of mice, 1 number of mice and 0 number of mice, respectively. This molecule also returned an IC50 in the assay filed under Mus musculus [1] of 22 µM.

In the case of `c1c2c(cc3c1OCO3)C1Cc3cc4c(cc3C(C2)N1)OCO4`, the values for the Survival rate in the assay with Mus musculus [2], in the assay with Mus musculus [3] and with Mus musculus [4] were 10 number of mice, 7 number of mice and 0 number of mice, respectively. In the assay filed under Mus musculus [1], the IC50 stood at 15 µM.

For `CCCCCC(=O)N1C2Cc3cc4c(cc3C1Cc1cc3c(cc12)OCO3)OCO4`, the IC50 in the assay listed under Mus musculus [1] is > 100 µM.

For the molecule `COc1cc2c(cc1OC)C1Cc3cc4c(cc3C(C2)N1)OCO4` (stereo not drawn), the IC50 in the assay filed under Mus musculus [1] stood at 100 µM.

In the assay filed under Mus musculus [1], `CCCCN1C2Cc3cc4c(cc3C1Cc1cc3c(cc12)OCO3)OCO4` came in with an IC50 of 58 µM. This IC50 is about 1.7-fold lower than that of the molecule before.

For the molecule `CCOC(=O)CC(=O)N1C2Cc3cc4c(cc3C1Cc1cc3c(cc12)OCO3)OCO4`, the Survival rate in the assay on Mus musculus [2] is 3 number of mice; in the assay on Mus musculus [3], 2 number of mice; in the assay with Mus musculus [4] it was 0 number of mice. The molecule further returned an IC50 in the assay filed under Mus musculus [1] of 26 µM.

Regarding `CC(=O)N1C2Cc3cc4c(cc3C1Cc1cc3c(cc12)OCCO3)OCCO4`, the Survival rate is listed as 7 number of mice in the assay on Mus musculus [2], 4 number of mice with Mus musculus [3] and 0 number of mice in the assay with Mus musculus [4]. Moreover, the IC50 in the assay listed under Mus musculus [1] amounted to 34 µM.

In the case of `CC(=O)N1C2Cc3cc(O)c(O)cc3C1Cc1cc(O)c(O)cc12`, the IC50 in the assay listed under Mus musculus [1] is > 100 µM.

Turning to `NCCCN1C2Cc3cc4c(cc3C1Cc1cc3c(cc12)OCO3)OCO4`, the IC50 in the assay listed under Mus musculus [1] was 52 µM.

`CCOC(=O)C(=O)N1C2Cc3cc4c(cc3C1Cc1cc3c(cc12)OCO3)OCO4`: the Survival rate was 2 number of mice in the assay with Mus musculus [2], 3 number of mice with Mus musculus [3] and 0 number of mice with Mus musculus [4]. In the assay filed under Mus musculus [1], the IC50 is 15 µM.

As for `CCC(=O)N1C2Cc3cc4c(cc3C1Cc1cc3c(cc12)OCO3)OCO4`, the Survival rate with Mus musculus [2] was 8 number of mice; in the assay on Mus musculus [3] it was 8 number of mice; in the assay with Mus musculus [4] it was 0 number of mice. For the same molecule, the IC50 in the assay filed under Mus musculus [1] came to 11 µM.

On to `COc1cc2c(cc1OC)C1Cc3cc4c(cc3C(C2)N1C(C)=O)OCO4` (stereo not drawn), for which the IC50 in the assay filed under Mus musculus [1] came out at 22 µM.

Take `OCCN1C2Cc3cc4c(cc3C1Cc1cc3c(cc12)OCO3)OCO4`: the Survival rate is listed as 9 number of mice in the assay on Mus musculus [2], 7 number of mice with Mus musculus [3] and 0 number of mice in the assay on Mus musculus [4]. This molecule displayed an IC50 in the assay listed under Mus musculus [1] of 36 µM.

Take `COc1cc2c(cc1OC)C1Cc3cc(OC)c(OC)cc3C(C2)N1`: the IC50 in the assay filed under Mus musculus [1] is > 100 µM.

With `Oc1cc2c(cc1O)C1Cc3cc(O)c(O)cc3C(C2)N1`, in the assay listed under Mus musculus [1], the IC50 was > 100 µM.

As to `O=C(CO)N1C2Cc3cc4c(cc3C1Cc1cc3c(cc12)OCO3)OCO4`, the Survival rate with Mus musculus [2] was 9 number of mice; in the assay with Mus musculus [3], 6 number of mice; with Mus musculus [4], 0 number of mice. This molecule also gave an IC50 in the assay filed under Mus musculus [1] of 20 µM.

Regarding `CC(=O)CCCCn1c(=O)c2c(ncn2C)n(C)c1=O` [PENTOXIFYLLINE], the results for the Survival rate with Mus musculus [2] and in the assay on Mus musculus [4] were 4 number of mice and 0 number of mice, respectively. In the assay listed under Mus musculus [1], this molecule gave an IC50 of 68 µM.

Source of the values: ChEMBL document CHEMBL1151099, “Synthesis of new TNF- Inhibitors and their biological properties” (Bioorg Med Chem Lett, 1996).
